Assays:
Type in all cases: biochemical
Axl (h) = target: T1, Axl (h) (Homo sapiens, UniProt P30530); assay: Enzymatic activity assay, Axl (h), [γ-33P]-ATP filter assay; settings: 10 μM ATP, 40 min room temperature; read-out: Inhibitory activity IC50 Axl(h)
T1 sequence (P30530 26-894): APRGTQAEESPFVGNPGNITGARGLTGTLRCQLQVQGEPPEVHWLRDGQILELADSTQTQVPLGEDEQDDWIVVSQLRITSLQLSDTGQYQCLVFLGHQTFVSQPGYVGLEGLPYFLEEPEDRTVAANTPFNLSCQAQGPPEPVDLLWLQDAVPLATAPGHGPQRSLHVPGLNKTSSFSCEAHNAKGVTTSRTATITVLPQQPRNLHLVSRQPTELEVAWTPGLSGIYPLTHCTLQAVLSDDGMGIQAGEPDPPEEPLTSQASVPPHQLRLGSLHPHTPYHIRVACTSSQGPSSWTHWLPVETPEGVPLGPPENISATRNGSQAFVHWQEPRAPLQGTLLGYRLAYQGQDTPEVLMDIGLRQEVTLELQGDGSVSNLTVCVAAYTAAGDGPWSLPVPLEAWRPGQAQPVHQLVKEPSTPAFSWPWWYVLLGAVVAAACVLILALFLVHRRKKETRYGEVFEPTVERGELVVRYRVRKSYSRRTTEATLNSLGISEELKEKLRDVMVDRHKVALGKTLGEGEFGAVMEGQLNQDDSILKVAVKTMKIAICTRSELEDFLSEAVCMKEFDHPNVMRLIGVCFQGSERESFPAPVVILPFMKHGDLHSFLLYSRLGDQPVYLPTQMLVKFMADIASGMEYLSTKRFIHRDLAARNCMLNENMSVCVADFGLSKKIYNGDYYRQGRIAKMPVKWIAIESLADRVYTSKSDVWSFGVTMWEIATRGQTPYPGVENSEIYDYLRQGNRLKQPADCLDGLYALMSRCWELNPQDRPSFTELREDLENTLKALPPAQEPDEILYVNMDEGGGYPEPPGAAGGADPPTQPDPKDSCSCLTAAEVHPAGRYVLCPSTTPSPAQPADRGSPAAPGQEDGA
Protocol: (§1) Compounds were each dissolved in 100% DMSO to prepare stock solutions with a maximum concentration of 500 μM.
(§2) Compound working solutions (50×) were prepared by diluting a compound stock solution to a final concentration of 500, 150, 50, 15, 5, 1.5, 0.5, 0.15 and 0.05 μM.
An enzyme solution with a final concentration of 1.7 nM was prepared by dissolving Axl (h) enzyme in a mixture of 8 mM MOPS (pH 7.0), 0.2 mM EDTA and 250 μM KKSRGDYMTMQIG. A Mg/ATP mixture of 10 mM magnesium acetate and 10 μM [γ-^33P]-ATP was used to activate the enzymatic reaction.
(§3) A compound working solution was added to a 384-well plate, with final concentrations of 10,000, 3,000, 1,000, 300, 100, 30, 10, 3 and 1 nM, and then different enzymatic reaction solutions prepared according to the above conditions were added. The reaction solutions were incubated at room temperature for 40 min, and then 0.5% phosphoric acid solutions were added to terminate the reaction. 10 μL of the reaction solution was added dropwise to P30 filter paper, washed 4 times with a 0.425% phosphoric acid solution and once with methanol, and then placed in a scintillation counter for detection. Gray analysis was performed on the results with Image J software, and IC50 values were calculated with GraphPad 5.0 software.

Tyro-3 (h) = target: T2, Tyro-3 (h) (Homo sapiens, UniProt Q06418); assay: Enzymatic activity assay, Tyro-3 (h), [γ-33P]-ATP filter assay; settings: 10 μM ATP, 40 min room temperature; read-out: Inhibitory activity IC50 Tyro-3(h)
T2 sequence (Q06418 41-890): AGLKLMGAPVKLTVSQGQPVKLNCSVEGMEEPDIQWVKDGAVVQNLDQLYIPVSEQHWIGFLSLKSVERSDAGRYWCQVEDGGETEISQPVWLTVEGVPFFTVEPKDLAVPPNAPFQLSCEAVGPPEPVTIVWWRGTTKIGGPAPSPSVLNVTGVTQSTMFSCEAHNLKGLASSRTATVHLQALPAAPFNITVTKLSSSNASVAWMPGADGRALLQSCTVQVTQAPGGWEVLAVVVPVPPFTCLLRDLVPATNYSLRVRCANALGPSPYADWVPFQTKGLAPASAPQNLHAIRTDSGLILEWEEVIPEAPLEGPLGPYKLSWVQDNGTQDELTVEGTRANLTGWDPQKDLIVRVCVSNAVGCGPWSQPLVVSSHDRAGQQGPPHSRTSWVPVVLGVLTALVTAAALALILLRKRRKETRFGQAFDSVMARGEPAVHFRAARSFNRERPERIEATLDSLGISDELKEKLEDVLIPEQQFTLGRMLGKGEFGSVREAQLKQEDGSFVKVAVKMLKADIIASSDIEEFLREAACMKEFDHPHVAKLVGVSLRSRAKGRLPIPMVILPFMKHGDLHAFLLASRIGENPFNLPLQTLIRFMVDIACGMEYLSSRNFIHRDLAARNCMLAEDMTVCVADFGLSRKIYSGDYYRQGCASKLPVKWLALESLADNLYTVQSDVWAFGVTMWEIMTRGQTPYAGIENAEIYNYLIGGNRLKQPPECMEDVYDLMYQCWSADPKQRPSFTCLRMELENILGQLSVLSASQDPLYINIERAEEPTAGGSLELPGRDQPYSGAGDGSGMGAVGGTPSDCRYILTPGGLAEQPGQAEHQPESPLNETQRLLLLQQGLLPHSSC
Protocol: as §1, §2
An enzyme solution with a final concentration of 38 nM was prepared by dissolving Tyro3 (h) enzyme in a mixture of 8 mM MOPS (pH 7.0), 0.2 mM EDTA, 1 mM MnCl2 and 250 μM KVEKIGEGTYGVVYK. A Mg/ATP mixture of 10 mM magnesium acetate and 10 μM [γ-^33P]-ATP was used to activate the enzymatic reaction.
as §3

Mer (h) = target: T3, Mer (h) (Homo sapiens, UniProt Q12866); assay: Enzymatic activity assay, Mer (h), [γ-33P]-ATP filter assay; settings: 10 μM ATP, 40 min room temperature; read-out: Inhibitory activity IC50 Mer(h)
T3 sequence (Q12866 21-999): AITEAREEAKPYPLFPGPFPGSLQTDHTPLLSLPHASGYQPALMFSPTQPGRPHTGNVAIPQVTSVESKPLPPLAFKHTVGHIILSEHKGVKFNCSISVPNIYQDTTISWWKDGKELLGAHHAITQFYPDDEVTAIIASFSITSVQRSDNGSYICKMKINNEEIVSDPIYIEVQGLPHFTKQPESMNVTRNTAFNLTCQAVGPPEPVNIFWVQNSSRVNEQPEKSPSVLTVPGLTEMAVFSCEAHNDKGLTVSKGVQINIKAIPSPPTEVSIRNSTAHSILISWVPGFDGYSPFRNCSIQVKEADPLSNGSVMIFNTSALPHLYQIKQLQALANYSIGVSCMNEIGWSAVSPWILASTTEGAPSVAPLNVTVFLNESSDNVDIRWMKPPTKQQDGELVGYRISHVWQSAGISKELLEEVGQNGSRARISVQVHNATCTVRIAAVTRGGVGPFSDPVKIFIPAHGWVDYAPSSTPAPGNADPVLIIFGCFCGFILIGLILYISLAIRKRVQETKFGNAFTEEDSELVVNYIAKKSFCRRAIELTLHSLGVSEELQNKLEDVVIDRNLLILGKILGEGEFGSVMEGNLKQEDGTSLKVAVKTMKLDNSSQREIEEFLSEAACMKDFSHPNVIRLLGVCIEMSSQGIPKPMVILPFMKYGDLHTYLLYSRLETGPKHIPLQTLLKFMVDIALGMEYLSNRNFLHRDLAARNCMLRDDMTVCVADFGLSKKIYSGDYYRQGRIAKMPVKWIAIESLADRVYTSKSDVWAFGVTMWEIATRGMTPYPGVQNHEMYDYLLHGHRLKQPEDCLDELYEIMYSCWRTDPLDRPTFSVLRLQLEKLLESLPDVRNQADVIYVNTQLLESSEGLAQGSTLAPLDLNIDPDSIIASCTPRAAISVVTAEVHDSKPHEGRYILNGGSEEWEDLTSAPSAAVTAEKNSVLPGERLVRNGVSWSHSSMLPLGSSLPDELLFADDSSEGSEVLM
Protocol: as §1, §2
An enzyme solution with a final concentration of 3.1 nM was prepared by dissolving Mer (h) enzyme in a mixture of 8 mM MOPS (pH 7.0), 0.2 mM EDTA, 30 mM NaCl and 250 μM GGMEDIYFEFMGGKKK. A Mg/ATP mixture of 10 mM magnesium acetate and 10 μM [γ-^33P]-ATP was used to activate the enzymatic reaction.
as §3

| Structure (SMILES) | IC50 (Axl (h)) | IC50 (Tyro-3 (h)) | IC50 (Mer (h)) |
| --- | --- | --- | --- |
| COc1cc2nccc(Oc3ccc(NC(=O)c4nn(CC5CCSCC5)cc(-c5ccc(C)cc5)c4=O)nc3)c2cc1OC [Compound 21, N-(5-((6,7-dimethoxyquinolin-4-yl)oxy)pyridin-2-yl)-4-oxo-1-((tetrahydro-2H-thiopyran-4-yl)methyl)-5-(p-tolyl)-1,4-dihydropyridazin-3-carboxamide] | 19 nM | 29 nM | 1 nM |
| COc1cc2nccc(Oc3cnc(NC(=O)c4cn(CC5CCSCC5)cc(-c5ccc(C)cc5)c4=O)nc3)c2cc1OC [Compound 22, N-(5-((6,7-dimethoxyquinolin-4-yl)oxy)pyrimidin-2-yl)-4-oxo-1-((tetrahydro-2H-thiopyran-4-yl)methyl)-5-(p-tolyl)-1,4-dihydropyridin-3-carboxamide] | 16 nM | 103 nM | 5 nM |
| COc1cc2nccc(Oc3cnc(NC(=O)c4nn(CC5CCSCC5)cc(-c5ccc(C)cc5)c4=O)nc3)c2cc1OC [Compound 23, N-(5-((6,7-dimethoxyquinolin-4-yl)oxy)pyrimidin-2-yl)-4-oxo-1-((tetrahydro-2H-thiopyran-4-yl)methyl)-5-(p-tolyl)-1,4-dihydropyridazin-3-carboxamide] | 9 nM | 33 nM | 8 nM |
| COc1ccc(-c2cnc(N)c(-c3ccc(NC(=O)c4cc(-c5ccc(C)cc5)cn(CC5CCOCC5)c4=O)cc3)c2)cc1OC [Compound 35, N-(4-(2-amino-5-(3,4-dimethoxyphenyl)pyridin-3-yl)phenyl)-2-oxo-1-((tetrahydro-2H-pyran-4-yl)methyl)-5-(p-tolyl)-1,2-dihydropyridin-3-carboxamide] | 44 nM | – | – |
| COc1ccc(-c2cnc(N)c(-c3ccc(NC(=O)c4cn(CC5CCOCC5)c(=O)n(-c5ccc(C)cc5)c4=O)cc3)c2)cc1OC [Compound 37, N-(4-(2-amino-5-(3,4-dimethoxyphenyl)pyridin-3-yl)phenyl)-2,4-dioxo-1-((tetrahydro-2H-pyran-4-yl)methyl)-3-(p-tolyl)-1,2,3,4-tetrahydropyrimidin-5-carboxamide] | 57 nM | – | – |
| COc1cc2nccc(O[C@H]3CC[C@@H](NC(=O)c4cn(CC5CCOCC5)cc(-c5ccc(C)cc5)c4=O)CC3)c2cc1OC [Compound 38, N-((cis)-4-((6,7-dimethoxyquinolin-4-yl)oxy)cyclohexyl)-4-oxo-1-((tetrahydro-2H-pyran-4-yl)methyl)-5-(p-tolyl)-1,4-dihydropyridin-3-carboxamide] | 22 nM | – | – |
